Assay results from patent US8765678B2, “Inhibition of the renin-angiotensin system for the treatment of renal, vascular and cartilage pathology” (Mor Research Applications Ltd., priority 2005, dated 2014).
“Also recorded” adds a separate entry of the source.

How the values were obtained:
rats with PAN nephrosis [1] = test: Blood and urine tests in rats with PAN nephrosis; type: in vivo, rat; settings: Wistar rats; PAN 75 mg/kg tail vein; enalapril 50 mg/L in drinking water from 3 days prior to PAN; blood day 10
Protocol: (§1) Animals and treatment regimen—Twenty-six male Wistar rats (Belinson, Israel, 220-260 gr each) were housed in individual metabolic cages, and allowed free access to a standard diet and water. Following an acclimatization period of 3 days, the rats were randomized into three groups: controls, puromycin aminonucleoside-treated (PAN-treated) and PAN+ enalapril treated. Six controls were injected with 0.9% NaCl, and 20 rats were injected with PAN (75 mg/kg, Sigma, St. Louis, Mo.) through the tail vein. Ten of the latter were treated with enalapril (Merck Research Laboratories, 50 mg/L) in their drinking water 3 days prior to PAN injection. On day 9, 24-hour urine collections were performed and the protein content was measured using the Beckman Array-Protein system. On day 10, rats were weighed and blood was collected for measurement of serum albumin, creatinine and cholesterol (Autoanalyzer, Hitachi, Japan). All animal experimentation was conducted according to the guidelines established by the Rabin Medical Center ethical committee for the Care and Use of Laboratory Animals

[2] = system: GBM of nephrotic PAN rats; test: CCG binding to the GBM, electron microscopy histochemistry and morphometry; type: in vivo, rat; settings: for CCG binding to the GBM (electron micrograph): PAN injected rat kidney, without or with enalapril treatment; for CCG binding, particles/μm^2 GBM (morphometric analysis): PAN rats, non-treated or enalapril-treated, control 67.3+5.6; for anionic GAG sites / preservation of GAGs in the GBM: nephrotic PAN rats
Protocol: as §1
Tissue preparation: The kidneys were removed rapidly and placed on ice and the cortices were separated from the medulla. Slices of each kidney were fixed in 0.5% glutaraldehyde in phosphate buffered saline (PBS), pH 7.4 for morphological and histochemical studies. For electron microscopy (EM), 1 mm^3 tissue blocks of GA-fixed kidneys were washed, dehydrated in ethanol, and embedded in LR-white resin (Polysciences, Wash. Pa.). For EM morphology, similar tissue blocks were post-fixed with 1% Osmium tetroxide (OsO4) in Veronal-acetate buffer, pH 7.4, for 1 hour at 4° C., dehydrated in ethanol and propylene oxide, and embedded in araldite (Polysciences).
Electron microscopy morphology and histochemistry: For EM morphology, ultrathin araldite sections were mounted on 400 mesh grids, stained with uranyl acetate and lead citrate, and coated with carbon. F or EM histochemistry, ultrathin LR-white sections were mounted on 200 mesh nickel grids, coated with formvar films and impregnated with carbon. Polycationic colloidal gold (CCG) was prepared by stabilization of colloidal gold, 12 nm with poly-L-lysine, as described by Weinstein et al., [J Am Soc Nephrol 8: 586-595, 1997]. The sections were stained with CCG, rinsed, and stained with saturated uranyl acetate in 50% ethanol. Examination of all sections was carried out using a JEOL-100B EM at 80 KV.
Morphometry: Analysis of the CCG labeling densities was performed in a blind manner on LR-white-embedded kidney tissue stained with CCG. Analysis was carried out by calculating the density of gold particles/1 μm^2 area of randomly cut membranes. Five rats from each group were studied. In each rat, 100 measurements from 10 glomeruli were performed. All measurements were carried out on digitized electron micrographs at a magnification of 5000, using the NIH-Image 1.49 program for the Macintosh.

rats with PAN nephrosis [3] = test: Electron microscopy morphology of kidney sections; type: in vivo; settings: PAN injected rat kidney, without or with enalapril treatment
Protocol: as §1
Tissue preparation: The kidneys were removed rapidly and placed on ice and the cortices were separated from the medulla. Slices of each kidney were fixed in 0.5% glutaraldehyde in phosphate buffered saline (PBS), pH 7.4 for morphological and histochemical studies. […]

[4] = system: Rat mesangial cells (RMC); test: Calorimetric assay of cell-associated GAGs; type: cell-based; settings: for cell-associated GAGs: 36 hours
Protocol: (§2) Rat mesangial cells (RMC): RMC derived from Sprague-Dawley rats (#ATCC-mesangial-CRL-2573) were cultured in DMEM supplemented with 15% fetal calf serum (FCS) and antibiotics, according to ATCC instructions. Mesangial cells are derived from the glomerular interstitium of the kidney and thus serve as a valuable tool for the analysis of the GBM.
Calorimetric assay: Cell-associated GAGs were isolated from RMC by cetylpyridinium chloride (CPC, Sigma) precipitation, as described by (Nevo et al., 1972). Briefly, cells were rendered quiescent in 2% FCS for 24 hours (i.e., starvation conditions), then incubated in DMEM for 36 hours with PAN 40 μg/ml (Sigma), in the presence of increasing doses of enalaprilat [(E), the active form of enalapril], according to the following protocol: control, PAN, PAN+E 200 μg/ml, PAN+E 400 μg/ml, PAN+E 800 μg/ml. Following thorough rinsing in PBS, RMC were harvested using 0.05% trypsin/EDTA. Following addition of a buffer containing 0.1 M sodium acetate, 0.005 M EDTA (Sigma), 0.005 M cysteine (Sigma), and 0.1% papain (Sigma), pH 5.4, the mixtures were incubated for 48 hours at 65° C. and dialyzed for 24 hours against distilled water. NaCl was added to the dialysate to a final concentration of 30 mM, and mixed well. GAGs were precipitated by the addition of CPC to a final concentration of 0.5% and the solution was incubated overnight at 37° C. The precipitate was collected by centrifugation, dissolved in 2 M CaCl2, reprecipitated with ethanol:ether (2:1), collected by centrifugation and dried. GAGs were determined calorimetrically (uronic acid content×3.3=GAG content) using heparan sulfate as standard and expressed as μg GAGs/10^6 cells.

[5] = system: Rat mesangial cells (RMC); test: Radioactive assay (^35S labeling) of cell-associated GAGs in RMC; type: cell-based; settings: for cell-associated GAGs (^35S), % of control: RMC
Protocol: as §2
(§3) Radioactive assay (^35S labeling): Cells were grown to confluence, and were rendered quiescent in 2% FCS for 24 hours, following which they were transferred to serum-free medium plus one of the following additives: control, PAN 40 μg/ml, PAN+E 200 μg/ml, PAN+E 400 μg/ml, PAN+E 800 μg/ml, PAN+C10^−7M candesartan in the presence of 1 μCi/ml ^35S. Following 24 hours, medium was collected, cells were harvested by trypsinization, and aliquots obtained for cell and protein measurements. Cells were digested with papain as described, followed by extensive dialysis against water containing a non-radioactive sodium sulfate, until water contained less than 100 cpm/ml. Dialysate was transferred to Corex tubes and the same procedure was carried out as described for non-radioactive GAGs. Radioactivity was measured in a beta-counter.

[6] = system: Human umbilical vein endothelial cells (HUVEC); test: Radioactive assay (^35S labeling) of cell-associated GAGs in endothelial cells; type: cell-based
Protocol: Endothelial cells: Human umbilical vein endothelial cells (HUVEC) were isolated by collagenase treatment. Cultures were established in M-199 medium containing 10% FCS, 25 μl/ml endothelial mitogen (Biomedical Technologies, Mass., USA) and antibiotics. HUVEC were passaged by treatment with 0.25% trypsin/0.02% EDTA, and passages 2-3 were used for experiments.
as §3

Chondrocytes = test: Radioactive assay (^35S labeling) of cell-associated GAGs in chondrocytes; type: cell-based
Protocol: Chondrocytes: Tissue bits from articular cartilage were incubated in-vitro and explant cell cultures were established as described [Nevo et al., 1972, Dev Biol 28: 219-228]. The cell cultures were assessed by immunohistochemistry.
as §3

[7] = system: Osteoarthritic-induced rat; test: Osteoarthritis model of partial meniscectomy, intra-articular ACE-I gel; type: in vivo; settings: rats, composite gel containing 5% captopril in the joint, 6 weeks
Source text: Osteoarthritis (OA) was induced in 32 rats using the model of partial meniscectomy of Rolli Moskowitz [Moskowitz, R W and Goldberg V M, J. Rheumatol. 1987 May; 14 Spec No:116-8; Moskowitz, R W et al., Ann Rheum Dis. 1981 December; 40(6):584-92]. The tissues of the control rats undergoing partial meniscectomy (8 rats) were immediately closed by suturing, while to the ACE-I treated group (24 rats), immediately following post partial meniscectomy, a composite gel containing ACE-I (5% captopril) was added prior to suturing the joint layers. After 6 weeks the animals were sacrificed. Prior to termination of the experiment a physical checkup ensured the degree of limping and movement limitation of the operated lower limb using an apparatus conducting a digital measurement of the degree of disability, translated to the pressure in grams activated by the operated limb, versus the healthy limb. Histological sections of the joint, femur and tibia, were prepared and stained with hematoxylin-eosin (H&E) as well as with Alcian blue at pH 2.5 and 1.0, and Masson's trichrome stain (Dako, Calif., U.S.A.). Together, these staining techniques assess proteoglycan content and extracellular matrix deposition.

[8] = system: inflammatory arthritis in mice; settings: Dalbeth et al., Rheumatology 44:24-31, 2004; cited from earlier work
[9] = chondrocytes pretreated with puromycin
[10] = chondrocytes, pretreatment with puromycin + enalaprilat 200 μg/ml

CN(C)c1ncnc2c1ncn2[C@@H]1O[C@H](CO)[C@@H](N)[C@H]1O [PAN, puromycin aminonucleoside]
serum creatinine (rats with PAN nephrosis [1]): 0.60 ± 0.01 mg/dL | CCG binding to the GBM (electron micrograph) [2]: marked decrease in CCG binding to the GBM | CCG binding, particles/μm^2 GBM (morphometric analysis) [2]: 39.1±1.0 particles/μm^2 GBM | anionic GAG sites / preservation of GAGs in the GBM [2]: decreased anionic GAG sites in the GBM | podocyte architecture (electron microscopy) (rats with PAN nephrosis [3]): loss of podocyte architecture in the glomeruli with flattening and effacement of foot processes | cell-associated GAGs ([4]; PAN 40 μg/ml, control 5.03+0.6): 2.35±0.54 μg GAGs/106 cells | cell-associated GAGs (^35S), % of control ([5]; PAN 40 μg/ml, 24 hours): 69% | cell associated GAGs (^35S), % of control ([6]; PAN 40 μg/ml): 81% | ^35S-GAG cpm ± SD (Chondrocytes; [9]): 4333 ± 108 cpm | ^35S-GAG, % of control culture (Chondrocytes; [9]): 68%

CCOC(=O)[C@H](CCc1ccccc1)N[C@@H](C)C(=O)N1CCC[C@H]1C(=O)O [enalapril]
serum cholesterol (rats with PAN nephrosis [1]): 91.7 ± 10.7 mg/dL | serum creatinine (rats with PAN nephrosis [1]): 0.60 ± 0.02 mg/dL | CCG binding to the GBM (electron micrograph) [2]: intense CCG binding similar to control | CCG binding, particles/μm^2 GBM (morphometric analysis) [2]: 56.0±5.5 particles/μm^2 GBM | anionic GAG sites / preservation of GAGs in the GBM [2]: beneficial effect on the preservation of GAGs in the GBM

C[C@H](CS)C(=O)N1CCC[C@H]1C(=O)O [captopril]
OA manifestations [7]: only a mild initiation of OA, evident by minimal fibrillations and cell cloning; also recorded: slows down, and minimizes the OA manifestations | articular cartilage histology (cellularity, proteoglycans) [7]: highly cellular, with a dense presentation of proteoglycans

C[C@H](N[C@@H](CCc1ccccc1)C(=O)O)C(=O)N1CCC[C@H]1C(=O)O [enalaprilat]
cell-associated GAGs ([4]; PAN 40 μg/ml + E 200 μg/ml): 2.43+0.42 μg GAGs/10^6 cells | cell-associated GAGs ([4]; PAN 40 μg/ml + E 400 μg/ml): 2.8+0.65 μg GAGs/10^6 cells | cell-associated GAGs ([4]; PAN 40 μg/ml + E 800 μg/ml): 5.3±0.43 μg GAGs/10^6 cells | GAG content, dose dependence ([4]; PAN 40 μg/ml + enalaprilat 200-800 μg/ml): dose-dependent rise in GAG content | cell-associated GAGs (^35S), % of control ([5]; PAN + enalaprilat 800 μg/ml): 80% | GAG synthesis (incorporation of ^35S), summary statement ([5]; cell type not given, in the presence of PAN): significantly increased GAG synthesis to control levels | cell associated GAGs (^35S), % of control ([6]; PAN + enalaprilat 800 μg/ml): 96% | ^35S-GAG, % of control culture (Chondrocytes; chondrocytes, in the presence of enalaprilat 200 μg/ml, no puromycin): 108% | ^35S-GAG cpm ± SD (Chondrocytes; chondrocytes, in the presence of enalaprilat 200 μg/ml, no puromycin, control culture 6331 ± 1075): 6820 ± 1651 cpm | ^35S-GAG cpm ± SD (Chondrocytes; [10]): 9636 ± 1848 cpm | ^35S-GAG, % of control culture (Chondrocytes; [10]): 152%

CCOC(=O)[C@H](CCc1ccccc1)N[C@@H](C)C(=O)N1Cc2ccccc2C[C@H]1C(=O)O [quinapril]
inflammatory arthritis / disease activity [8]: suppress inflammatory arthritis

CCOc1nc2cccc(C(=O)O)c2n1Cc1ccc(-c2ccccc2-c2nnn[nH]2)cc1 [candesartan]
cell-associated GAGs (^35S), % of control ([5]; PAN + candesartan 10^−7 M (first column of that head, c3)): 76 ± 6.2% | cell-associated GAGs (^35S), % of control ([5]; PAN + candesartan 10^−7 M (second column of that head, c4)): 102% | cell associated GAGs (^35S), % of control ([6]; PAN + candesartan 10^−7 M): 107%
